From patent US5374711A, “Chemical modification of 2"-amino group in elsamicin a” (Bristol-Myers Squibb Company, priority 1993, dated 1994)
≈ marks a conversion by molar mass, not a printed value. Where a name gives a salt, the structure may show the parent alone.

Columns and labels:
[1] = tested on: lymphocytic leukemia P388; test: In vivo antitumor activity against P388 leukemia in mice (ip, Q1Dx3); set-up: species or system mice (female CDF1); conditions: for T/C % of MST / prolongation of life-span in the P388-bearing mice: Q1Dx3, ip; for times less active than the parent compound in terms of minimum effective doses (MED): P388, vs elsamicin A
Experimental: (§1) Among the derivatives tested, in vivo antitumor activity of six derivatives showing relatively potent cytotoxicity was tested in the lymphocytic leukemia P388 and B16 melanoma systems. Female CDF1 (for P388) and male BDF1 (for B16) mice were inoculated by ip injection at 10^6 P388 cells and 0.5 ml of a 10% B16 brei per mouse, respectively (day 0). […] The percent increase of median survival time (MST) of treated animals over that of untreated control animals was determined and reported as T/C %. Compounds showing T/C % values of 125 or greater are considered to have significant antitumor activity. […] The others had no activity at the doses tested. Derivatives 4d4e, and 5 when tested in the B16 system, also gave 10- 30 times less antitumor activity than elsamicin A in terms of MED (Table 5).

B16 melanoma = test: In vivo antitumor activity against B16 melanoma in mice (ip, Q4Dx3); set-up: species or system mice (male BDF1); conditions: for times less antitumor activity than elsamicin A in terms of MED: B16, vs elsamicin A
Experimental: as §1

leukemia P388 = conditions: in vitro and in vivo; cited from earlier work
anaerobic bacteria = conditions: cited from earlier work
melanotic melanoma B16 = conditions: in vitro and in vivo; cited from earlier work
[2] = tested on: aerobic gram-positive bacteria; conditions: cited from earlier work
[3] = tested on: murine melanoma B16-F10 cells; test: cells; conditions: Mus musculus, B16-F10, 72 h, read-out: Cytotoxicity IC50
Experimental: For in vitro cytotoxicity experiment, murine melanoma B16-F10 cells were grown and maintained in Eagle's minimum essential medium (Nissui), which contains kanamycin (60 μg/ml), supplemented with heat-inactivated fetal calf serum (10%) and nonessential amino acids (0.6%) at 37° C. under a humidified atmosphere in a 5% CO2 incubator, Exponentially growing B16-F10 cells were harvested, counted and suspended in the culture medium at the concentration of 2.0×10^4 cells/ml. The cell suspension (180 μl) was planted into wells of a 96-well microtiter plate and incubated for 24 hours. Test compounds (20 μl) were added to the wells and the plates were further incubated for 72 hours. The cytotoxic activity was colorimetrically determined at 540 nm after staining viable cells with neutral red solution.

lymphoid leukemia L1210 = conditions: in vitro and in vivo; cited from earlier work

SMILES	T/C % of MST ([1]; 1 mg/kg/day)	T/C % of MST ([1]; 3 mg/kg/day)	T/C % of MST ([1]; 10 mg/kg/day)	T/C % of MST (B16 melanoma; 1 mg/kg/day, Q4Dx3 ip)	T/C % of MST (B16 melanoma; 3 mg/kg/day, Q4Dx3 ip)	T/C % of MST (B16 melanoma; 10 mg/kg/day, Q4Dx3 ip)	times less antitumor activity than elsamicin A in terms of MED (B16 melanoma)	times less active than the parent compound in terms of minimum effective doses (MED) [1]	prolongation of life-span in the P388-bearing mice [1]	T/C % of MST (B16 melanoma; 0.3 mg/kg/day, Q4Dx3 ip)	T/C % of MST ([1]; 0.1 mg/kg/day)	T/C % of MST ([1]; 0.3 mg/kg/day)	also measured
CO[C@H]1[C@@H](O)[C@@H](C)O[C@H](O[C@H]2[C@H](Oc3cccc4c(O)c5c(=O)oc6ccc(C)c7c(=O)oc(c34)c5c67)O[C@H](C)[C@H](O)[C@]2(C)O)[C@@H]1NC(=O)CN [Compound 3d, 2"-N-Glycylelsamicin A]	95%	110%	110%	–	–	–	–	–	–	–	–	–	–
CO[C@H]1[C@@H](O)[C@@H](C)O[C@H](O[C@H]2[C@H](Oc3cccc4c(O)c5c(=O)oc6ccc(C)c7c(=O)oc(c34)c5c67)O[C@H](C)[C@H](O)[C@]2(C)O)[C@@H]1N(C)C [Compound 4e, 2"-N,N-Dimethylelsamicin A]	110%	130%	140%	103%	109%	132%	10- 30 times	10-30 times	quite limited prolongation of life-span	–	–	–	–
CO[C@H]1[C@@H](O)[C@@H](C)O[C@H](O[C@H]2[C@H](Oc3cccc4c(O)c5c(=O)oc6ccc(C)c7c(=O)oc(c34)c5c67)O[C@H](C)[C@H](O)[C@]2(C)O)[C@@H]1N1CCOCC1 [Compound 4f, 2"-Deamino-2"-morpholinoelsamicin A]	100%	105%	100%	–	–	–	–	–	–	–	–	–	–
CO[C@H]1[C@@H](O)[C@@H](C)O[C@H](O[C@H]2[C@H](Oc3cccc4c(O)c5c(=O)oc6ccc(C)c7c(=O)oc(c34)c5c67)O[C@H](C)[C@H](O)[C@]2(C)O)[C@@H]1NC(C)C [Compound 4a, 2"-N-Isopropylelsamicin A]	110%	120%	140%	–	–	–	–	10-30 times	quite limited prolongation of life-span	–	–	–	–
CO[C@H]1[C@@H](O)[C@@H](C)O[C@H](O[C@H]2[C@H](Oc3cccc4c(O)c5c(=O)oc6ccc(C)c7c(=O)oc(c34)c5c67)O[C@H](C)[C@H](O)[C@]2(C)O)[C@@H]1NC=N [Compound 5, 2"-N-Formimidoylelsamicin A hydrochloride]	120%	130%	140%	103%	126%	150%	10- 30 times	10-30 times	quite limited prolongation of life-span	100%	100%	100%	–
CO[C@@H]1[C@@H](N)[C@@H](O[C@H]2[C@H](Oc3cccc4c(O)c5c(=O)oc6ccc(C)c7c(=O)oc(c34)c5c67)O[C@H](C)[C@H](O)[C@]2(C)O)O[C@H](C)[C@@H]1O [Compound 1, Elsamicin A]	150%	170%	205%	168%	208%	≥ 282%	–	–	–	128%	120%	137%	T/C % of MST (B16 melanoma; 0.1 mg/kg/day, Q4Dx3 ip): 115%; No. of survivors/tested on day 50 (B16 melanoma; 10 mg/kg/day, Q4Dx3 ip, day 50): 4/8; activity against murine tumor cells (leukemia P388): exerts activity; antibacterial activity (anaerobic bacteria): exhibits antibacterial activity; activity against murine tumor cells (melanotic melanoma B16): exerts activity; antibacterial activity [2]: exhibits antibacterial activity; IC50 [3]: 0.07 µg/mL (≈ 0.107 µM); activity against murine tumor cells (lymphoid leukemia L1210): exerts activity; T/C % of MST ([1]; 20 mg/kg/day): Tox
CN[C@H]1[C@@H](O[C@H]2[C@H](Oc3cccc4c(O)c5c(=O)oc6ccc(C)c7c(=O)oc(c34)c5c67)O[C@H](C)[C@H](O)[C@]2(C)O)O[C@H](C)[C@H](O)[C@@H]1OC [Compound 4d, 2"-N-Methylelsamicin A]	120%	130%	145%	100%	115%	135%	10- 30 times	10-30 times	quite limited prolongation of life-span	106%	100%	100%	–
